Test results from PMC12133982, “Predominant T-cell epitopes of SARS-CoV-2 restricted by multiple prevalent HLA-B and HLA-C allotypes in Northeast Asia” (Frontiers in Immunology, 2025).
pIC50: −log10 of the molar value. Peptide text beside a SMILES is read from it.

Key:
[1] = biological target: HLA-B4601 (Homo sapiens, UniProt P01889, A329T/A93R/C349S/D201E/E100V/E187L/E204Q/E69M/E70A/I90K/K202T/N87E/R155S/R180W/S121R/S35A/S48A/V306I/V36M/Y140S); assay: Competitive peptide binding assay, CIR-B4601; conditions: for pIC50: HMy2.CIR-B4601 cells, reference Cy5-[…], class from inhibition at 5 and 15 μM, flow cytometry MFI, read-out: Binding affinity with HLA-B4601; for inhibition at 5 µM: read-out: Inhibition % of Cy5-reference peptide binding, CIR-B4601, 5μM peptide; for inhibition at 15 µM: read-out: Inhibition % of Cy5-reference peptide binding, CIR-B4601, 15μM peptide
Protocol: (§1) Then, competitive peptide binding assays were performed.

[2] = biological target: HLA-B5801 (Homo sapiens, UniProt P01889, A329T/C349S/D201E/D98Y/E176V/E187L/E204Q/E69T/G107R/I218V/I90N/K202T/L105A/L119I/N104I/N87E/Q89R/Q94S/R106L/R155S/R180L/R86G/S101N/S121R/S35A/S48A/T118I/V127L/V306I/V36M/Y140S/Y91M); assay: Competitive peptide binding assay, CIR-B5801; conditions: HMy2.CIR-B5801 cells, reference Cy5-[…], class from inhibition at 5 and 15 μM, flow cytometry MFI; read-out: Binding affinity with HLA-B5801
Protocol: as §1

[3] = biological target: HLA-B1502 (Homo sapiens, UniProt P01889, A329T/A93T/A95T/C349S/D201E/D98Y/E187L/E204Q/E69M/E70A/H137Y/K202T/L119I/Q94N/R155S/R180L/S121R/S35A/S48A/T118I/V306I/V36M/Y140S/Y91S); assay: Competitive peptide binding assay, CIR-B1502; conditions: HMy2.CIR-B1502 cells, reference Cy5-[…], class from inhibition at 5 and 15 μM, flow cytometry MFI; read-out: Binding affinity with HLA-B1502
Protocol: as §1

[4] = biological target: HLA-B1301 (Homo sapiens, UniProt P01889, A65T/A93T/A95T/D138N/D201E/D98Y/E176V/E204Q/E69M/E70A/G107R/K202T/L105A/L119I/N104T/N87E/Q94N/R106L/R155S/R169L/R180L/S101N/S121R/S35A/S48T/T118I/V127L/V36M/Y140L/Y91S); assay: Competitive peptide binding assay, CIR-B1301; conditions: HMy2.CIR-B1301 cells, reference Cy5-[…], class from inhibition at 5 and 15 μM, flow cytometry MFI; read-out: Binding affinity with HLA-B1301
Protocol: as §1

[5] = biological target: HLA-B1302 (Homo sapiens, UniProt P01889, A65T/A93T/A95T/D138N/D201E/D98Y/E176V/E204Q/E69M/E70A/G107R/K202T/L105A/L119W/N104T/N87E/Q94N/R106L/R155S/R169L/R180L/S101N/S121T/S35A/S48T/V127L/V36M/Y140L/Y91S); assay: Competitive peptide binding assay, CIR-B1302; conditions: HMy2.CIR-B1302 cells, reference Cy5-MMWYWGPSL, class from inhibition at 5 and 15 μM, flow cytometry MFI; read-out: Binding affinity with HLA-B1302
Protocol: as §1

[6] = biological target: HLA-B1501 (Homo sapiens, UniProt P01889, A329T/A93T/A95T/C349S/D201E/D98Y/E187L/E204Q/E69M/E70A/K202T/N87E/Q94N/R155S/R180W/S121R/S35A/S48A/V306I/V36M/Y140S/Y91S); assay: Competitive peptide binding assay, CIR-B1501; conditions: HMy2.CIR-B1501 cells, reference Cy5-[…], class from inhibition at 5 and 15 μM, flow cytometry MFI; read-out: Binding affinity with HLA-B1501
Protocol: as §1

[7] = biological target: HLA-B3501 (Homo sapiens, UniProt P01889, A329T/A93T/A95T/C349S/D201E/D98Y/E176V/E187L/E204Q/E69T/I218V/K202T/L119I/Q94N/R155S/R180L/S121R/S35A/S48A/T118I/V127L/V306I/V36M/Y140S/Y91F); assay: Competitive peptide binding assay, CIR-B3501; conditions: HMy2.CIR-B3501 cells, reference Cy5-[…], class from inhibition at 5 and 15 μM, flow cytometry MFI; read-out: Binding affinity with HLA-B3501
Protocol: as §1

[8] = biological target: HLA-C0602 (Homo sapiens, UniProt P10321, A176E/A330V/C350S/L171W/L180W/L218V/M285V/M309V/M331V/N104K/P208H/Q277E/Q291P/R121W/S101N/S123Y/S297R/T329A/T363A/V319A/V328M); assay: Competitive peptide binding assay, CIR-C0602
[9] = biological target: HLA-C0702 (Homo sapiens, UniProt P10321); assay: Competitive peptide binding assay, CIR-C0702

| Compound | pIC50 [1] | inhibition at 5 µM [1] | inhibition at 15 µM [1] | pIC50 [2] | pIC50 [3] | pIC50 [4] | pIC50 [5] | pIC50 [6] | pIC50 [7] | pIC50 [8] | pIC50 [9] |
| --- | --- | --- | --- | --- | --- | --- | --- | --- | --- | --- | --- |
| C[C@H](NC(=O)[C@H](CO)NC(=O)[C@H](CO)NC(=O)[C@@H](N)Cc1ccc(O)cc1)C(=O)N[C@@H](CC(N)=O)C(=O)N[C@@H](CC(N)=O)C(=O)N[C@@H](CS)C(=O)N[C@H](C(=O)N[C@@H](Cc1ccccc1)C(=O)O)[C@@H](C)O [Epitope Y247] (H-YSSANNCTF-OH; N-terminus and C-terminus assumed) | 4.82 to 5.30 | 44.6% | 86.4% | > 5.30 | < 4.82 | < 4.82 | 4.82 to 5.30 | < 4.82 | < 4.82 | – | – |
| CC(C)C[C@H](NC(=O)[C@H](CC(=O)O)NC(=O)[C@H](CCC(N)=O)NC(=O)[C@@H](NC(=O)[C@@H](N)CO)[C@@H](C)O)C(=O)N[C@@H](Cc1ccccc1)C(=O)N[C@@H](CC(C)C)C(=O)N1CCC[C@H]1C(=O)N[C@@H](Cc1ccccc1)C(=O)O [Epitope Y249] (H-STQDLFLPF-OH; N-terminus and C-terminus assumed) | – | – | – | – | – | < 4.82 | < 4.82 | 4.82 to 5.30 | – | – | – |
| CSCC[C@H](NC(=O)[C@H](CO)NC(=O)[C@H](CCCNC(=N)N)NC(=O)[C@@H](NC(=O)[C@H](CCCNC(=N)N)NC(=O)[C@H](C)NC(=O)[C@@H](N)Cc1ccccc1)[C@@H](C)O)C(=O)N[C@@H](Cc1c[nH]c2ccccc12)C(=O)N[C@@H](CO)C(=O)N[C@@H](Cc1ccccc1)C(=O)O [Epitope Y47] (H-FARTRSMWSF-OH; N-terminus and C-terminus assumed) | < 4.82 | – | – | < 4.82 | > 5.30 | – | < 4.82 | – | > 5.30 | – | – |
| C[C@H](NC(=O)[C@H](Cc1ccc(O)cc1)NC(=O)[C@H](C)NC(=O)[C@@H](N)Cc1ccccc1)C(=O)N[C@@H](CC(N)=O)C(=O)N[C@@H](CCCNC(=N)N)C(=O)N[C@@H](CC(N)=O)C(=O)N[C@@H](CCCNC(=N)N)C(=O)N[C@@H](Cc1ccccc1)C(=O)O [Epitope Y49] (H-FAYANRNRF-OH; N-terminus and C-terminus assumed) | – | – | – | 4.82 to 5.30 | – | – | < 4.82 | < 4.82 | > 5.30 | – | – |
| C[C@@H](O)[C@H](NC(=O)CNC(=O)[C@H](CCC(N)=O)NC(=O)[C@@H](N)CCCNC(=N)N)C(=O)N[C@@H](CC(=O)O)C(=O)N[C@@H](Cc1ccc(O)cc1)C(=O)N[C@@H](CCCCN)C(=O)N[C@@H](Cc1c[nH]cn1)C(=O)N[C@@H](Cc1c[nH]c2ccccc12)C(=O)O [Epitope Y222] (H-RQGTDYKHW-OH; N-terminus and C-terminus assumed) | – | – | – | – | – | – | < 4.82 | 4.82 to 5.30 | – | – | – |
| CC(C)C[C@H](N)C(=O)N1CCC[C@H]1C(=O)N[C@@H](CC(N)=O)C(=O)N[C@@H](CC(N)=O)C(=O)N[C@H](C(=O)N[C@@H](C)C(=O)N[C@@H](CO)C(=O)N[C@@H](Cc1c[nH]c2ccccc12)C(=O)N[C@@H](Cc1ccccc1)C(=O)O)[C@@H](C)O [Epitope Y17] (H-LPNNTASWF-OH; N-terminus and C-terminus assumed) | – | – | – | < 4.82 | – | – | < 4.82 | < 4.82 | > 5.30 | – | – |
| CC[C@H](C)[C@H](NC(=O)[C@H](CC(C)C)NC(=O)[C@@H](N)CCC(=O)O)C(=O)N[C@@H](CCCNC(=N)N)C(=O)N[C@@H](CCC(N)=O)C(=O)NCC(=O)N[C@H](C(=O)N[C@@H](CC(=O)O)C(=O)N[C@@H](Cc1ccc(O)cc1)C(=O)O)[C@@H](C)O [Epitope Y162] (H-ELIRQGTDY-OH; N-terminus and C-terminus assumed) | > 5.30 | – | – | 4.82 to 5.30 | 4.82 to 5.30 | – | < 4.82 | < 4.82 | < 4.82 | – | – |
| CC[C@H](C)[C@H](NC(=O)[C@@H](NC(=O)[C@H](CCC(=O)O)NC(=O)[C@H](CCC(=O)O)NC(=O)[C@@H](N)Cc1c[nH]cn1)[C@@H](C)O)C(=O)N[C@@H](Cc1ccc(O)cc1)C(=O)N[C@@H](CC(N)=O)C(=O)N[C@@H](CC(C)C)C(=O)N[C@@H](CC(C)C)C(=O)O [Epitope Y199] (H-HEETIYNLL-OH; N-terminus and C-terminus assumed) | < 4.82 | 24.9% | 44.1% | 4.82 to 5.30 | – | – | 4.82 to 5.30 | – | > 5.30 | – | – |
| CC[C@H](C)[C@H](NC(=O)[C@H](CO)NC(=O)[C@H](CCC(N)=O)NC(=O)[C@H](CO)NC(=O)[C@H](C)NC(=O)[C@@H](N)C(C)C)C(=O)N[C@H](C(=O)N[C@@H](C)C(=O)N[C@@H](Cc1ccc(O)cc1)C(=O)O)[C@@H](C)CC [Epitope Y151] (H-VASQSIIAY-OH; N-terminus and C-terminus assumed) | – | – | – | < 4.82 | – | – | > 5.30 | < 4.82 | > 5.30 | – | – |
| CC(C)[C@H](NC(=O)[C@@H](N)Cc1ccccc1)C(=O)N[C@@H](CO)C(=O)N[C@@H](CC(N)=O)C(=O)NCC(=O)N[C@H](C(=O)N[C@@H](Cc1c[nH]cn1)C(=O)N[C@@H](Cc1c[nH]c2ccccc12)C(=O)N[C@@H](Cc1ccccc1)C(=O)O)[C@@H](C)O [Epitope Y250] (H-FVSNGTHWF-OH; N-terminus and C-terminus assumed) | – | – | – | – | < 4.82 | – | < 4.82 | < 4.82 | < 4.82 | – | – |
| CC[C@H](C)[C@H](NC(=O)[C@@H]1CCCN1C(=O)[C@@H](NC(=O)[C@H](Cc1c[nH]cn1)NC(=O)[C@H](CCCCN)NC(=O)[C@H](CO)NC(=O)[C@@H](N)Cc1ccc(O)cc1)[C@@H](C)O)C(=O)N[C@@H](CC(N)=O)C(=O)N[C@@H](CC(C)C)C(=O)O [Epitope M127] (H-YSKHTPINL-OH; N-terminus and C-terminus assumed) | – | – | – | – | – | – | – | – | – | < 4.82 | < 4.82 |
| CC(C)[C@H](NC(=O)CNC(=O)[C@H](Cc1c[nH]cn1)NC(=O)[C@@H]1CCCN1C(=O)[C@H](C)NC(=O)[C@H](CO)NC(=O)[C@H](CCC(N)=O)NC(=O)[C@@H]1CCCN1C(=O)[C@@H](N)Cc1ccccc1)C(=O)O [Epitope Y281] (H-FPQSAPHGV-OH; N-terminus and C-terminus assumed) | – | – | – | – | < 4.82 | < 4.82 | < 4.82 | 4.82 to 5.30 | – | – | – |
